From patent US20210047324A1 (Aptinyx Inc., priority 2018, published 2021)
Several values for one entry are separate records, joined by “and”; a condition that tells them apart may be missing. Equal values may be shown once.

Legend:
[1] = biological target: T1, NMDAR2A (Homo sapiens, UniProt Q12879); assay: NMDAR agonist assay, [3H]MK-801 binding, NMDAR2A expressing HEK cell membranes; assay type: biochemical; design: key to NMDAR2A B: log EC50: 0=−; ≥1×10^−9 M (e.g., −8)=+; <1×10^−9 M (e.g., −10)=++; conditions: 50 μM glutamate; for EC50: read-out: NMDAR2A B: log EC50 (converted); for Emax: 0.25 h, read-out: NMDAR2A A: % maximal [3H]MK-801 binding relative to 1 mM glycine; for Emax / NMDAR2A A: % maximal [3H]MK-801 binding relative to 1 mM glycine: relative to 1 mM glycine
T1 construct: expressed in transfected cells; host or cells: HEK cells (membrane extract)
T1 sequence (Q12879 23-1464, species assumed, other chains not shown): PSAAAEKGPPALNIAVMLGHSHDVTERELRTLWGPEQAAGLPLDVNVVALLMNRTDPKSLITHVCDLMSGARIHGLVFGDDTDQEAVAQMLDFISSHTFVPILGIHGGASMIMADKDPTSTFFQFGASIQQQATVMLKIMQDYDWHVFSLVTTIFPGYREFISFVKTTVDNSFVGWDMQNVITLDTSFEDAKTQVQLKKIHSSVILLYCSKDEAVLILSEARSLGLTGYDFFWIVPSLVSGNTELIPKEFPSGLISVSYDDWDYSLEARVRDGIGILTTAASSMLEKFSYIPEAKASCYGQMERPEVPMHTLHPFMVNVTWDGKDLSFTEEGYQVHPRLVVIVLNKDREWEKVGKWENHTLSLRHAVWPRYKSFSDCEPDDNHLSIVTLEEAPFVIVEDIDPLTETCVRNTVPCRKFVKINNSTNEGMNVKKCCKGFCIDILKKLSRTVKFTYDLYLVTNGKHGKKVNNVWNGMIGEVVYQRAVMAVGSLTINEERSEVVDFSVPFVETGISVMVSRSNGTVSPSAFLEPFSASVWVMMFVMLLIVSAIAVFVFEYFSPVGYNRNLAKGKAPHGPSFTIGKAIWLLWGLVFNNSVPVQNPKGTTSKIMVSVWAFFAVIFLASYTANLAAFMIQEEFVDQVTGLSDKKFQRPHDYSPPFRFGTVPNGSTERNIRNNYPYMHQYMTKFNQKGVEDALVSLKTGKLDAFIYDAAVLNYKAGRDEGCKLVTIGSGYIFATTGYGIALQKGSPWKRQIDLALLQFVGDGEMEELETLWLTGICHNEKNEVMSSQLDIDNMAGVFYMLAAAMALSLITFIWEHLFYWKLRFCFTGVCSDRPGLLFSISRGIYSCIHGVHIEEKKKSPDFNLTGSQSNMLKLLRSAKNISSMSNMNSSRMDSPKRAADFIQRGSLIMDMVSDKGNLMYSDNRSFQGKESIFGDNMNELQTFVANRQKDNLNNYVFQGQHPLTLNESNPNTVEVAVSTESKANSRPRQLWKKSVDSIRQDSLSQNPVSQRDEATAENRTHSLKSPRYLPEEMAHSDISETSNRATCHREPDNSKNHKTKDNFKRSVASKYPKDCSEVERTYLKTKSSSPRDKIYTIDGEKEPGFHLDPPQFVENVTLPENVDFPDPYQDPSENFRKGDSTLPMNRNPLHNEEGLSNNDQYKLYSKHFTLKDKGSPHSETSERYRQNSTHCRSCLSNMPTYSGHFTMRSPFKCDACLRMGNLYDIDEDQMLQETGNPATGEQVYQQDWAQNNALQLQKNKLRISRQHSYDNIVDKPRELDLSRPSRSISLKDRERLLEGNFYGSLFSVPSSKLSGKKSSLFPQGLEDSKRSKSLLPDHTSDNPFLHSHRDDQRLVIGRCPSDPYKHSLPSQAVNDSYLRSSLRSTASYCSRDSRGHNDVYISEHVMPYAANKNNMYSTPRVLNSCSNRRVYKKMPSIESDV
Description: (§1) Assays were conducted as described by Moskal et al., “GLYX-13: a monoclonal antibody-derived peptide that acts as an N-methyl-D-aspartate receptor modulator,” Neuropharmacology, 49, 1077-87, 2005. These studies were designed to determine if the test compounds act to facilitate NMDAR activation in NMDAR2A, NMDAR2B, NMDAR2C or NMDAR2D expressing HEK cell membranes as measured by increases in [^3H]MK-801 binding.
(§2) In the assay, 300 μg of NMDAR expressing HEK cell membrane extract protein was preincubated for 15 minutes at […] in the presence of saturating concentrations of glutamate (50 μM) and varying concentrations of test compound (1×10^−15M-1×10^−7M), or 1 mM glycine. Following the addition of 0.3 μCi of [3H]MK-801 (22.5 Ci/mmol), reactions were again incubated for 15 minutes at 25° C. (nonequilibrium conditions). Bound and free [3H]MK-801 were separated via rapid filtration using a Brandel apparatus.
(§3) In analyzing the data, the DPM (disintegrations per minute) of [3H]MK-801 remaining on the filter were measured for each concentration of test compound or for 1 mM glycine. The DPM values for each concentration of a ligand (N=2) were averaged. The baseline value was determined from the best fit curve of the DPM values modeled using the GraphPad program and the log(agonist) vs. response (three parameters) algorithm was then subtracted from all points in the dataset. The % maximal [^3H]MK-801 binding was then calculated relative to that of 1 mM glycine: all baseline subtracted DPM values were divided by the average value for 1 mM glycine. The EC50 and % maximal activity were then obtained from the best fit curve of the % maximal [3H]MK-801 binding data modelled using the GraphPad program and the log(agonist) vs. response (three parameters) algorithm.
(§4) The tables below summarize the results for the wild type […] NMDAR2A, NMDAR2B, NMDAR2C, and NMDAR2D, and whether the compound is not an agonist (−), is an agonist (+), or is a strong agonist (++), where column A is based on the % maximal [3H]MK-801 binding relative to 1 mM glycine (−=0; <100%=+; and >100%=++); and column B is based on log EC50 values (0=−; ≥1×10^−9 M (e.g., −8)=+; and <1×10^−9 M (e.g., −10)=++).

[2] = biological target: T2, NMDAR2B (Homo sapiens, UniProt Q13224); assay: NMDAR agonist assay, [3H]MK-801 binding, NMDAR2B expressing HEK cell membranes; assay type: biochemical; design: key to NMDAR2B B: log EC50: 0=−; ≥1×10^−9 M (e.g., −8)=+; <1×10^−9 M (e.g., −10)=++; conditions: 50 μM glutamate; for EC50: read-out: NMDAR2B B: log EC50 (converted); for Emax / NMDAR2B A: % maximal [3H]MK-801 binding relative to 1 mM glycine: relative to 1 mM glycine; for Emax: read-out: NMDAR2B A: % maximal [3H]MK-801 binding relative to 1 mM glycine
T2 construct: expressed in transfected cells; host or cells: HEK cells (membrane extract)
T2 sequence (Q13224 27-1484, species assumed, other chains not shown): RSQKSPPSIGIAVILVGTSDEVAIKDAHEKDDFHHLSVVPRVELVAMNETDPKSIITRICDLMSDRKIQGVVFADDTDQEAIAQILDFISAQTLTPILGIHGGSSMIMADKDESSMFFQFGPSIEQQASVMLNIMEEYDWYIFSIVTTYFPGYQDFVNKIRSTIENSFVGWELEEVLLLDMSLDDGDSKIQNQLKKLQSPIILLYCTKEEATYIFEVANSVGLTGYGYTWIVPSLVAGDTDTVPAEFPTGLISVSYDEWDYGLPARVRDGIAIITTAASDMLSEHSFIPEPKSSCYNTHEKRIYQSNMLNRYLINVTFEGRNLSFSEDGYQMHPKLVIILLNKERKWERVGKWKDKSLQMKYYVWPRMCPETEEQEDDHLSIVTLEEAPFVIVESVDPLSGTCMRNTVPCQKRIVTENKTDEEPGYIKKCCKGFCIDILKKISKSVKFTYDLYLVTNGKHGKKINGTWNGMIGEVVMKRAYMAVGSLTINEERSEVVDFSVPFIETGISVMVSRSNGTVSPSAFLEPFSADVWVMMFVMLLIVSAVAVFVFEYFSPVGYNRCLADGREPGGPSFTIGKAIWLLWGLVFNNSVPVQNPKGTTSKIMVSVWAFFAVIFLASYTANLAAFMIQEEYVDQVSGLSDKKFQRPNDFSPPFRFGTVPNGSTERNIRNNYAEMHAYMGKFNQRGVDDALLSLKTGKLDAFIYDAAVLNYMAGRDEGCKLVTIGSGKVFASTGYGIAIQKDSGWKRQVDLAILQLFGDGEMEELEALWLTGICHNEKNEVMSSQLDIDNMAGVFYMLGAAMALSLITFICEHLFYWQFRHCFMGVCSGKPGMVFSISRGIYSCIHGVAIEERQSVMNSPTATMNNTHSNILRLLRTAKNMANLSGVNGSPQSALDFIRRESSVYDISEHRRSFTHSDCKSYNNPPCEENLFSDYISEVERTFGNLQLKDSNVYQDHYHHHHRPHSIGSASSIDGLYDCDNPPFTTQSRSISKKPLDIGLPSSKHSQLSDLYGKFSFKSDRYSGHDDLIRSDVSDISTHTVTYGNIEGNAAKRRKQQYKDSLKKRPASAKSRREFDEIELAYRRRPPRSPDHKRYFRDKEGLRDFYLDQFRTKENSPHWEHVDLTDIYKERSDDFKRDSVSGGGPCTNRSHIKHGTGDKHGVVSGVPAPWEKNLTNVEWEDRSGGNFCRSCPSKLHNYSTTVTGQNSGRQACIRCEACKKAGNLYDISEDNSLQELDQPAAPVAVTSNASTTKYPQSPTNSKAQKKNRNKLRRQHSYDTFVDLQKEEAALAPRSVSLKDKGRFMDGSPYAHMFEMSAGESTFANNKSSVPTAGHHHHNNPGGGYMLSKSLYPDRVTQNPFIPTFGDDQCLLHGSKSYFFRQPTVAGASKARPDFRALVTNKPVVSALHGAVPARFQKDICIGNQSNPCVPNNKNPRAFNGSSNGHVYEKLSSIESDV
Description: as §1, §2, §3, §4

[3] = Plasma stability (Rat); assay type: in vitro ADME; conditions: after 60 minutes
Description: (§5) Plasma stability of disclosed compounds was investigated. The following table indicates the percent of compound remaining after 60 minutes.

[4] = Microsomal stability (Human); assay type: in vitro ADME; conditions: after 60 minutes
Description: Microsomal stability of disclosed compounds was investigated. The following table indicates the percent of compound remaining after 60 minutes.

[5] = Plasma stability (Human); assay type: in vitro ADME; conditions: after 60 minutes
Description: as §5

[6] = test system: Sprague Dawley rats; assay: Porsolt forced swim test; assay type: in vivo; conditions: 1 h post-dose, 0.1 mg/kg
Description: A non-clinical in vivo pharmacology study (Porsolt assay) was performed to measure antidepressant-like effects. The study allowed for the evaluation of the effects of each compound on the Porsolt forced swim test as assessed by the rats' response (reduced floating time) during a 5-minute swimming test.
Male 2-3 month old Sprague Dawley rats were used (Harlan, Indianapolis, Ind.). Rats were housed in Lucite cages with aspen wood chip bedding, maintained on a 12:12 light:dark cycle (lights on at 5 AM), and given ad libitum access to Purina lab chow (USA) and tap water throughout the study.
The Porsolt forced swim test adapted for use in rats was performed as described by Burgdorf et al., (The long-lasting antidepressant effects of rapastinel (GLYX-13) are associated with a metaplasticity process in the medial prefrontal cortex and hippocampus. Neuroscience 308:202-211, 2015). Animals were placed in a 46 cm tall×20 cm in diameter clear glass tube filled to 30 cm with tap water (23±1° C.) for 15 min on the first day (habituation) and 5 min on the subsequent test day. Animals were tested 1 h or 24 h post-dosing with the test compounds or vehicle control (0.5% sodium carboxymethyl cellulose in 0.9% sterile saline). A subset of compounds tested at 1 h post-dosing was tested again 1 wk post-dosing. Animals received a 15 min habituation session 1 day before the first 5 min test. Water was changed after every other animal. Animals were videotaped, and floating time as defined as the minimal amount of effort required to keep the animals head above water was scored offline by a blinded experimenter with high inter-rater reliability (Pearson's r >0.9).

[7] = IV pharmacokinetics in Sprague Dawley rats; assay type: in vivo; conditions: Sprague-Dawley, rat, in vivo, iv, 2 mg/kg, normal saline; for Cmax: read-out: Cmax; for Vd: read-out: Vss
Description: Sprague Dawley rats were dosed intravenously using a normal saline formulation containing 2 mg/kg of the compounds identified in the below table. The table below summarizes the results of the IV pharmacokinetics.

[8] = Oral pharmacokinetics in Sprague Dawley rats (plasma, brain, CSF); assay type: in vivo; conditions: rat, 10 mg/kg; for Tmax / AUC(0-t) / bioavailability / Cmax: Sprague-Dawley, po, plasma; for Tmax / AUC(0-t) / Cmax / CSF Cmax / Brain Cmax: per os; for Tmax: read-out: Tmax; for bioavailability: per os 10 mg/kg; for Cmax: read-out: Cmax
Description: In another experiment, Sprague Dawley rats were dosed per os (oral gavage) using a normal saline formulation containing 10 mg/kg of the compounds identified in the table below. Plasma, brain, and CSF samples were analyzed at various time points over a 24 hour period. The table below summarizes the results of the oral pharmacokinetics, where the first three values (Tmax, Cmax and AUClast) are plasma values.

## CN1CC=CCC2(CCCN2Cc2ccccc2)C1=O (single isomer, unassigned) [GT-2, 1-benzyl-7-methyl-1,7-diazaspiro[4.6]undec-9-en-6-one]
[1]
  EC50: < 1 nM
[2]
  EC50: ≥ 1 nM

## O=C1NCCCC12CCCNC2 (single isomer, unassigned) [CD, 2,8-diazaspiro[5.5]undecan-1-one]
[1]
  EC50: < 1 nM
  Emax: < 100%
[2]
  EC50: < 1 nM
  Emax: < 100%

## CC(C)C(=O)N1CCC2(CCCN2C(=O)C(C)C)C1=O (single isomer, unassigned) [GU-2, 1,1′-(6-oxo-1,7-diazaspiro[4.4]nonane-1,7-diyl)bis(2-methylpropan-1-one)]
[1]
  EC50: < 1 nM
  NMDAR2A A: % maximal [3H]MK-801 binding relative to 1 mM glycine: + (<100%=+)
[2]
  EC50: < 1 nM
  NMDAR2B A: % maximal [3H]MK-801 binding relative to 1 mM glycine: + (<100%=+)

## O=C1NCC=CCC12CC(F)(F)CN2 (single isomer, unassigned) [GL-1, 3,3-difluoro-1,7-diazaspiro[4.6]undec-9-en-6-one]
[1]
  EC50: < 1 nM
  Emax: < 100%
[2]
  EC50: < 1 nM
  Emax: < 100%

## CN1CC=CCC2(CCCN2C)C1=O (stereo not shown) [listing 1 of 2 here]
[1]
  EC50: < 1 nM
  NMDAR2A A: % maximal [3H]MK-801 binding relative to 1 mM glycine: + (<100%=+)
[2]
  NMDAR2B B: log EC50: −
  NMDAR2B A: % maximal [3H]MK-801 binding relative to 1 mM glycine: − (−=0)

## CN1CCCC12CC=CCNC2=O (single isomer, unassigned) [GC-2, 1-methyl-1,7-diazaspiro[4.6]undec-9-en-6-one]
[1]
  EC50: ≥ 1 nM
  NMDAR2A A: % maximal [3H]MK-801 binding relative to 1 mM glycine: + (<100%=+)
[3]
  Plasma (Rat): percent of compound remaining: 103%
[4]
  Microsomal (Human): percent of compound remaining: 82% and 100%
[2]
  EC50: < 1 nM
  NMDAR2B A: % maximal [3H]MK-801 binding relative to 1 mM glycine: + (<100%=+)
[5]
  Plasma (Human): percent of compound remaining: 98%

## CC(=O)N1CCCC12CC=CCNC2=O (single isomer, unassigned) [GG-1, 1-acetyl-1,7-diazaspiro[4.6]undec-9-en-6-one]
[1]
  EC50: < 1 nM
  Emax: < 100%
[2]
  EC50: < 1 nM
  Emax: < 100%

## O=C1NCCCCC12CCCCN2 (single isomer, unassigned) [BA, 1,8-diazaspiro[5.6]dodecan-7-one]
[1]
  EC50: < 1 nM
[2]
  EC50: < 1 nM

## O=C1N(Cc2ccc(F)cc2)CC=CCC12CCCN2 (single isomer, unassigned) [GK-1, 7-(4-fluorobenzyl)-1,7-diazaspiro[4.6]undec-9-en-6-one]
[6]
  % reduction in float time: 24%
  Significance vs. vehicle: No
[1]
  EC50: < 1 nM
  NMDAR2A A: % maximal [3H]MK-801 binding relative to 1 mM glycine: + (<100%=+)
[7]
  AUC(0-t): 0.335 µg·h/mL
  clearance: 5.9 L/h/kg
  half-life: 32.4 min
  Cmax: 0.854 µg/mL
  Vd: 3.01 L/kg
[2]
  EC50: < 1 nM
  Emax: > 100%
[8]
  Tmax: 30 min
  AUC(0-t): 0.718 µg·h/mL
  bioavailability: 43%
  Cmax: 0.642 µg/mL
  CSF Cmax: 0.32245 µg/mL
  Brain Cmax: 3.36895 µg/mL

## CN1CCCC12CC=CCNC2=O (single isomer, unassigned) [GC-1, 1-methyl-1,7-diazaspiro[4.6]undec-9-en-6-one]
[1]
  EC50: < 1 nM
  Emax: < 100%
[3]
  Plasma (Rat): percent of compound remaining: 89%
[4]
  Microsomal (Human): percent of compound remaining: 115% and 67%
[7]
  AUC(0-t): 1.02 µg·h/mL
  clearance: 1.93 L/h/kg
  half-life: 40.8 min
  Cmax: 1.21 µg/mL
  Vd: 1.78 L/kg
[2]
  EC50: < 1 nM
  Emax: > 100%
[5]
  Plasma (Human): percent of compound remaining: 97%
[8]
  Tmax: 25.2 min
  AUC(0-t): 4.43 µg·h/mL
  bioavailability: 87%
  Cmax: 2.4 µg/mL
  CSF Cmax: 0.74403 µg/mL
  Brain Cmax: 2.5787 µg/mL

## CN1CC=CCC2(CCCN2C)C1=O (stereo not shown) [listing 2 of 2 here]
[1]
  NMDAR2A B: log EC50: −
  NMDAR2A A: % maximal [3H]MK-801 binding relative to 1 mM glycine: − (−=0)
[2]
  NMDAR2B B: log EC50: −
  Emax: 0%

## O=C1NCCCC12CCCN2 (stereo not shown) [EU-1, 1,7-diazaspiro[4.5]decan-6-one]
[1]
  NMDAR2A B: log EC50: −
  Emax: 0%
[2]
  EC50: < 1 nM
  Emax: < 100%

## CC(C)(C)OC(=O)N1CCCCCC12CNC2=O (single isomer, unassigned) [EI-2, tert-butyl 1-oxo-2,5-diazaspiro[3.6]decane-5-carboxylate]
[1]
  EC50: < 1 nM

## O=C1NCCCCC12CCCNC2 (single isomer, unassigned) [CG, 2,8-diazaspiro[5.6]dodecan-7-one]
[1]
  EC50: < 1 nM
[2]
  EC50: < 1 nM

## O=C1NCCCC12CCCNC2 (single isomer, unassigned) [CE, 2,8-diazaspiro[5.5]undecan-1-one]
[1]
  EC50: < 1 nM
[2]
  EC50: < 1 nM
